Measurements taken from patent US20260041640A1 (INCYCLIX BIO, LLC, priority 2023, published 2026).

Legend:
[1] = Plasma protein binding, rat; type: in vitro ADME
From the text: Additionally, the whole blood-to-plasma ratio (KWB/P) in humans is 6.20, which also exceeds the other species tested (Table 7).

[2] = First-in-human clinical study: safety and tolerability; type: in vivo
Protocol: (§1) All INX-315 tablets were taken at approximately the same time(s) each day.
Cohort 1 enrollment of 6 subjects dosed at 100 mg oral QD was completed in October of 2023.

[3] = Toxicity and toxicokinetics studies, mouse; type: in vivo, mice
Protocol: (§2) Nominal dose values and sampling times were used for calculations. Any concentration reported as BLQ (LLOQ<1.0 ng/mL) was set equal to zero. Toxicokinetic analyses included Cmax, Tmax, AUC0-24, t1/2, RA Cmax, and RA AUC0-24.
(§3) Following this, human dose exposure was simulated using a combined whole blood and plasma compartment PK model using allometry and whole blood parameter estimates for the absorption rate constants and bioavailability per animal species. Absolute dose administration was used for modeling. V1, CL, V2, and Q parameters were extrapolated to human using allometric scaling. CL, Q by exponent equaled 0.818. V1, V2 by exponent equaled 1.03. Human body weight was set to 75 kg. Absorption rate constant (KA) was in reasonable ranges in mouse, rat, and dog, with values of 0.44, 0.53, and 0.18 (1/hr), respectively.

[4] = Toxicity and toxicokinetics studies, rat; type: in vivo, Sprague Dawley rats
Protocol: as §2, §3, §1

[5] = biological target: CDK2/cyclin E (Homo sapiens, UniProt P24941); details: intracellular; read-out: Nanobret IC50 CDK2/cyclin E; cited from earlier work
[6] = system: Ovcar-3; details: BLU-222: based on Ovcar-3 cell cycle data (maximum G1 arrest); read-out: Cellular IC50; cited from earlier work

For `NS(=O)(=O)c1ccc(Nc2ncc3cc4n(c3n2)C2(CCCCC2)C(=O)NN4)cc1` [INX-315], the fraction unbound [1] was 0.018, the safety issues ([2]; 200 mg QD) was “no new safety issues” and the DLTs ([2]; Cohort 1, 100 mg QD) was “No DLTs”. The “changes in complete blood counts or clinical chemistries” value ([2]; Cohort 1, 100 mg QD) was “No significant changes”, the tolerability ([2]; Cohort 1, 100 mg QD) was “well tolerated” and the “Absorption rate constant (KA)” value ([3]; model parameter estimate) was 0.44 h⁻¹. The bioavailability ([3]; whole blood, po, read-out: Bioavailability (F1)) was 62%, the bioavailability ([4]; both sexes, Sprague Dawley, rat, in vivo, po) was 8% and the “Absorption rate constant (KA)” value ([4]; both, Sprague Dawley, rat, in vivo) was 0.53 h⁻¹. For the same compound, the “human equivalent dose (HED) of the no observed adverse effect level (NOAEL)” value ([4]; rats) was 9730 mg/day, the “safety margin of 100 mg QD starting dose vs HED of NOAEL” value ([4]; rats) was 97 fold and the IC50 [5] was 2 nM. For the same compound, the IC50 [6] was less than 100 nM.
